Test results published in article PMC5507300, “Antibacterial small molecules targeting the conserved TOPRIM domain of DNA gyrase” (PLoS ONE, 2017).
Values after ≈ are worked out from the molar mass of the structure shown. “Also recorded” adds a separate entry of the source.

How the values were obtained:
E. coli BW25113 ΔtolC = assay: Broth microdilution MIC, E. coli BW25113 ΔtolC; assay type: cell-based; conditions: Escherichia coli
From the text: E. coli HS151 (ΔtolC) has been described previously. Gyrase inhibitor-resistant isolates (GYR101-108) were derived by selection for spontaneous resistance to MRL-770 or MRL-423 (Fig 1) in E. coli HS151 as described below. E. coli BW25113 and the Keio gene deletion collection based on BW25113 [25] were obtained from Thermo Fisher Scientific (Waltham, MA) and described in [26]. The plasmid-borne FQ resistance determinant, qnrVC3 [27], was kindly provided by D. Hooper (Massachusetts General Hospital). MB9796 (A. baumannii) is a derivative of MB9797 (ATCC19606) lacking lipopolysaccharide. The efflux-defective P. aeruginosa strain MB5890 (CB398) is a derivative of MB5919 (PAO1). MB2884 (E. coli) and CL15245 (K. pneumoniae) are clinical isolates from the Merck & Co., Inc., Kenilworth, NJ, USA, strain collection. S. aureus COL is a methicillin-resistant clinical isolate.
Compound doubling dilutions were prepared in 100% DMSO (Sigma Aldrich) and 2 μL of each dilution was transferred to a 96-well plate with lid (Thermo Scientific). Inoculum for all MIC testing was prepared using the BBL Prompt Inoculation System (Becton Dickinson, Franklin Lakes, NJ USA) as described by the manufacturer to produce a suspension of cells at approximately 1.5 x 10^8 colony forming units (CFU)/mL [34–36] and a further dilution (1:1000) was made into cation adjusted Mueller-Hinton broth (CAMH broth, Becton-Dickinson). One hundred μL of this inoculum were then transferred to each well of the 96-well plate containing diluted compound (above). Plates were covered and incubated overnight (18 hrs.) at 37°C.
The yacG deletion allele from the Keio collection was amplified by PCR (primers: […] and […]) and moved to BW25113 ΔtolC as described below. The E. coli strain BW25113 ΔtolC containing pKD46 [25] was used to inoculate SOB (Invitrogen)/0.2% w/v arabinose (Sigma Aldrich)/ampicillin (100 μg/mL) and grown overnight at 30°C. The overnight culture was then diluted 1/40 into 20 mL fresh SOB/0.2% w/v arabinose/ampicillin (100 μg/mL) and grown at 30°C while shaking for ~3 hrs until OD600 = 0.5. […]

E. coli DNA gyrase [1] = molecular target: T1, E. coli DNA gyrase (Escherichia coli, UniProt P0AES6); assay: Agarose gel DNA gyrase supercoiling assay, E. coli; assay type: biochemical
T1 construct: purchased New England Biolabs, Beverly, MA
Procedure: Conditions to measure the supercoiling of a relaxed, closed-circular plasmid substrate and cleavage complex stabilization in agarose gels were adapted from the literature and carried out as described below. Plasmid supercoiling reactions were assembled by combining 0.4 μL compound (in 100% DMSO), 12.5 μL H2O, 4 μL 5Xbuffer, 0.4 μL relaxed pUC19 DNA substrate (0.5 μg), […] dilute DNA gyrase (buffer, substrate, and enzyme from New England Biolabs, Beverly, MA). Alternatively the substrate pHOT-1 (TopoGEN, Buena Vista, CO) was used as noted (the substrate from New England Biolabs has been discontinued). P. aeruginosa DNA gyrase was supplied by Inspiralis, Norwich, UK. Reactions were allowed to proceed for 30 min. at 37°C after which 5 μL of stop buffer (5% sarkosyl, 25% glycerol, 1X Blue Juice [Invitrogen, Carlsbad, CA]) were added. Reactions were then extracted with 20 μL chloroform/isoamylOH (24:1) and a portion of the aqueous phase was loaded into a well in a 1% agarose/Tris-borate EDTA gel. Electrophoresis was conducted at 35 VDC until the loading dye migrated about 6.5 cm down the gel. DNA in the gel was then stained in 0.5 μg/mL ethidium bromide in water for 30 min. and rinsed (3X) in H2O. The gel was illuminated with UV light, photographed, and DNA quantitated with an Alpha Imager and accompanying software (ProteinSimple, San Jose, CA).

E. coli DNA gyrase [2] = molecular target: T1, E. coli DNA gyrase; assay: Cleavage complex stabilization gel assay; assay type: biochemical; conditions: supercoiled pUC19
Procedure: Cleavage complex stabilization was detected by assembling a gyrase reaction, as above, containing 0.4μL compound (in 100% DMSO), 12.5 μL H2O, 4 μL 5X buffer, 0.4 μL supercoiled pUC19 DNA substrate (0.4 μg), 3 μL gyrase (15 U). The reaction was incubated at 25°C for 60 min. after which 3 μL 2% SDS and 3 μL 1 mg/mL proteinase K were added. […] DNA in the gel was illuminated with UV light and photographed as above.

[3] = system: DNA synthesis in E. coli JL553; assay: Macromolecule synthesis labeling; assay type: cell-based; conditions: E. coli JL553, 25 min exposure, labeled precursor incorporation
Procedure: Macromolecule synthesis profiling was conducted as described by Montgomery, et al. with minor modifications. E. coli strain JL553 (tolC, lysE) was used to measure inhibition of DNA, RNA, protein, peptidoglycan and phospholipid biosynthesis while E. coli MB5500 (lpxC [envA1], galE; Merck & Co., Inc., Kenilworth, NJ, USA, strain collection) was used to measure inhibition of lipopolysaccharide biosynthesis. Radioisotope labeled precursors were used at the following final concentrations [2-^14C]-thymidine (2.5 μCi/mL), [^14C(U)]-uridine (0.5 μCi/mL), L-[4, 5-^3H]-leucine (5 μCi/mL), [2-^3H]-glycerol (2 μCi/mL), [^3H]-diaminopimelic acid (3 μCi/mL), D-[1-^14C]-galactose (0.5 μCi/mL). Compound concentrations (3-fold serial dilutions) were chosen to place the minimum inhibitory concentration (see below) near the center of the dose range. Labeled cultures were incubated with compound for 25 min; stopped with trichloroacetic acid, filtered and incorporation was measured as described. Percent inhibition of incorporation was calculated relative to an untreated control culture for each labeled precursor and plotted with GraphPad Prism.

| Compound | MIC (E. coli BW25113 ΔtolC) [µg/mL] | IC50 (E. coli DNA gyrase [1]) [µM] | cleavage complex stabilization (E. coli DNA gyrase [2]) | inhibition of macromolecule synthesis [3] | inhibition of E. coli DNA gyrase (gel) (E. coli DNA gyrase [1]; S1 Fig, pHOT-1 substrate) |
| --- | --- | --- | --- | --- | --- |
| Cn1ncc2cc(-c3cnnn3C3CCN(C(=O)Nc4cc(Cl)cc(Cl)c4)CC3)ccc21 [MRL-423] | 0.25 (≈ 0.532 µM) | ~7.5 | stabilizes cleavage complex formation in a dose-dependent fashion |  |  |
| COc1ccc(C)cc1NC(=O)N1CCC(n2nncc2-c2ccc3c(cnn3C)c2)CC1 [MRL-770] |  |  |  | selective and reproducible inhibition of DNA synthesis | limited; also recorded: dose-dependent inhibition of enzyme activity |
